# Laboratory results published in the CheMixHub viscosity set.
# ± gives the uncertainty stated by the source.
# Experiment: xn = mol fraction of the nth substance listed
smiles,measurement,setting,value
NC=O + OCCO,viscosity,"293.15 K, 100 kPa, x1 = 0.1003",16.54 ± 3.3 mPa·s
same,viscosity,"293.15 K, 100 kPa, x1 = 0.2002",13.55 ± 2.7 mPa·s
same,viscosity,"293.15 K, 100 kPa, x1 = 0.299",11.22 ± 2.2 mPa·s
same,viscosity,"293.15 K, 100 kPa, x1 = 0.3975",9.55 ± 1.9 mPa·s
same,viscosity,"293.15 K, 100 kPa, x1 = 0.5027",7.99 ± 1.6 mPa·s
same,viscosity,"293.15 K, 100 kPa, x1 = 0.6014",6.85 ± 1.4 mPa·s
same,viscosity,"293.15 K, 100 kPa, x1 = 0.7027",5.827 ± 1.2 mPa·s
same,viscosity,"293.15 K, 100 kPa, x1 = 0.7999",4.96 ± 0.99 mPa·s
same,viscosity,"293.15 K, 100 kPa, x1 = 0.9014",4.413 ± 0.88 mPa·s
same,viscosity,"293.15 K, 101 kPa, x1 = 0.0612",17.53 ± 0.093 mPa·s
same,viscosity,"293.15 K, 101 kPa, x1 = 0.1204",15.35 ± 0.082 mPa·s
same,viscosity,"293.15 K, 101 kPa, x1 = 0.1859",13.53 ± 0.072 mPa·s
same,viscosity,"293.15 K, 101 kPa, x1 = 0.3302",10.35 ± 0.056 mPa·s
same,viscosity,"293.15 K, 101 kPa, x1 = 0.4517",8.301 ± 0.046 mPa·s
same,viscosity,"293.15 K, 101 kPa, x1 = 0.5643",6.692 ± 0.038 mPa·s
same,viscosity,"293.15 K, 101 kPa, x1 = 0.6596",5.526 ± 0.032 mPa·s
same,viscosity,"293.15 K, 101 kPa, x1 = 0.7454",4.685 ± 0.028 mPa·s
same,viscosity,"293.15 K, 101 kPa, x1 = 0.8195",4.186 ± 0.025 mPa·s
same,viscosity,"293.15 K, 101 kPa, x1 = 0.8883",3.908 ± 0.023 mPa·s
same,viscosity,"293.15 K, 101 kPa, x1 = 0.9491",3.714 ± 0.022 mPa·s
same,viscosity,"298.15 K, 100 kPa, x1 = 0.1003",13.52 ± 2.7 mPa·s
same,viscosity,"298.15 K, 100 kPa, x1 = 0.2002",10.99 ± 2.2 mPa·s
same,viscosity,"298.15 K, 100 kPa, x1 = 0.299",8.878 ± 1.8 mPa·s
same,viscosity,"298.15 K, 100 kPa, x1 = 0.3975",7.61 ± 1.5 mPa·s
same,viscosity,"298.15 K, 100 kPa, x1 = 0.5027",6.541 ± 1.3 mPa·s
same,viscosity,"298.15 K, 100 kPa, x1 = 0.6014",5.592 ± 1.1 mPa·s
same,viscosity,"298.15 K, 100 kPa, x1 = 0.7027",4.71 ± 0.94 mPa·s
same,viscosity,"298.15 K, 100 kPa, x1 = 0.7999",4.15 ± 0.83 mPa·s
same,viscosity,"298.15 K, 100 kPa, x1 = 0.9014",3.817 ± 0.76 mPa·s
same,viscosity,"298.15 K, 101 kPa, x1 = 0.0612",14.25 ± 0.077 mPa·s
same,viscosity,"298.15 K, 101 kPa, x1 = 0.1204",12.26 ± 0.067 mPa·s
same,viscosity,"298.15 K, 101 kPa, x1 = 0.1859",10.7 ± 0.059 mPa·s
same,viscosity,"298.15 K, 101 kPa, x1 = 0.3302",8.058 ± 0.045 mPa·s
same,viscosity,"298.15 K, 101 kPa, x1 = 0.4517",6.445 ± 0.037 mPa·s
same,viscosity,"298.15 K, 101 kPa, x1 = 0.5643",5.306 ± 0.032 mPa·s
same,viscosity,"298.15 K, 101 kPa, x1 = 0.6596",4.526 ± 0.027 mPa·s
same,viscosity,"298.15 K, 101 kPa, x1 = 0.7454",4.003 ± 0.024 mPa·s
same,viscosity,"298.15 K, 101 kPa, x1 = 0.8195",3.721 ± 0.022 mPa·s
same,viscosity,"298.15 K, 101 kPa, x1 = 0.8883",3.526 ± 0.021 mPa·s
same,viscosity,"298.15 K, 101 kPa, x1 = 0.9491",3.39 ± 0.02 mPa·s
same,viscosity,"303.15 K, 100 kPa, x1 = 0.1003",11.1 ± 2.2 mPa·s
same,viscosity,"303.15 K, 100 kPa, x1 = 0.2002",9.12 ± 1.8 mPa·s
same,viscosity,"303.15 K, 100 kPa, x1 = 0.299",7.232 ± 1.4 mPa·s
same,viscosity,"303.15 K, 100 kPa, x1 = 0.3975",6.151 ± 1.2 mPa·s
same,viscosity,"303.15 K, 100 kPa, x1 = 0.5027",5.273 ± 1.1 mPa·s
same,viscosity,"303.15 K, 100 kPa, x1 = 0.6014",4.603 ± 0.92 mPa·s
same,viscosity,"303.15 K, 100 kPa, x1 = 0.7027",3.99 ± 0.8 mPa·s
same,viscosity,"303.15 K, 100 kPa, x1 = 0.7999",3.647 ± 0.73 mPa·s
same,viscosity,"303.15 K, 100 kPa, x1 = 0.9014",3.402 ± 0.68 mPa·s
same,viscosity,"303.15 K, 101 kPa, x1 = 0.0612",11.64 ± 0.064 mPa·s
same,viscosity,"303.15 K, 101 kPa, x1 = 0.1204",9.875 ± 0.055 mPa·s
same,viscosity,"303.15 K, 101 kPa, x1 = 0.1859",8.482 ± 0.048 mPa·s
same,viscosity,"303.15 K, 101 kPa, x1 = 0.3302",6.301 ± 0.037 mPa·s
same,viscosity,"303.15 K, 101 kPa, x1 = 0.4517",5.002 ± 0.03 mPa·s
same,viscosity,"303.15 K, 101 kPa, x1 = 0.5643",4.172 ± 0.025 mPa·s
same,viscosity,"303.15 K, 101 kPa, x1 = 0.6596",3.708 ± 0.023 mPa·s
same,viscosity,"303.15 K, 101 kPa, x1 = 0.7454",3.403 ± 0.021 mPa·s
same,viscosity,"303.15 K, 101 kPa, x1 = 0.8195",3.234 ± 0.019 mPa·s
same,viscosity,"303.15 K, 101 kPa, x1 = 0.8883",3.126 ± 0.019 mPa·s
same,viscosity,"303.15 K, 101 kPa, x1 = 0.9491",3.025 ± 0.018 mPa·s
same,viscosity,"308.15 K, 101 kPa, x1 = 0.0612",9.225 ± 0.052 mPa·s
same,viscosity,"308.15 K, 101 kPa, x1 = 0.1204",7.684 ± 0.044 mPa·s
same,viscosity,"308.15 K, 101 kPa, x1 = 0.1859",6.488 ± 0.038 mPa·s
same,viscosity,"308.15 K, 101 kPa, x1 = 0.3302",4.664 ± 0.029 mPa·s
same,viscosity,"308.15 K, 101 kPa, x1 = 0.4517",3.702 ± 0.023 mPa·s
same,viscosity,"308.15 K, 101 kPa, x1 = 0.5643",3.206 ± 0.02 mPa·s
same,viscosity,"308.15 K, 101 kPa, x1 = 0.6596",2.947 ± 0.018 mPa·s
same,viscosity,"308.15 K, 101 kPa, x1 = 0.7454",2.808 ± 0.017 mPa·s
same,viscosity,"308.15 K, 101 kPa, x1 = 0.8195",2.753 ± 0.017 mPa·s
same,viscosity,"308.15 K, 101 kPa, x1 = 0.8883",2.727 ± 0.016 mPa·s
same,viscosity,"308.15 K, 101 kPa, x1 = 0.9491",2.692 ± 0.016 mPa·s
same,viscosity,"308.15 K, 101 kPa, x2 = 0.0761",2.392 ± 0.22 mPa·s
same,viscosity,"308.15 K, 101 kPa, x2 = 0.1538",2.439 ± 0.22 mPa·s
same,viscosity,"308.15 K, 101 kPa, x2 = 0.2311",2.487 ± 0.23 mPa·s
same,viscosity,"308.15 K, 101 kPa, x2 = 0.3245",2.636 ± 0.24 mPa·s
same,viscosity,"308.15 K, 101 kPa, x2 = 0.4125",2.996 ± 0.27 mPa·s
same,viscosity,"308.15 K, 101 kPa, x2 = 0.5236",4.026 ± 0.35 mPa·s
same,viscosity,"308.15 K, 101 kPa, x2 = 0.6337",5.164 ± 0.44 mPa·s
same,viscosity,"308.15 K, 101 kPa, x2 = 0.7468",6.594 ± 0.54 mPa·s
same,viscosity,"308.15 K, 101 kPa, x2 = 0.8596",8.193 ± 0.64 mPa·s
same,viscosity,"313.15 K, 101 kPa, x1 = 0.0612",7.801 ± 0.045 mPa·s
same,viscosity,"313.15 K, 101 kPa, x1 = 0.1204",6.506 ± 0.038 mPa·s
same,viscosity,"313.15 K, 101 kPa, x1 = 0.1859",5.384 ± 0.033 mPa·s
same,viscosity,"313.15 K, 101 kPa, x1 = 0.3302",3.8 ± 0.024 mPa·s
same,viscosity,"313.15 K, 101 kPa, x1 = 0.4517",3.055 ± 0.019 mPa·s
same,viscosity,"313.15 K, 101 kPa, x1 = 0.5643",2.716 ± 0.017 mPa·s
same,viscosity,"313.15 K, 101 kPa, x1 = 0.6596",2.556 ± 0.016 mPa·s
same,viscosity,"313.15 K, 101 kPa, x1 = 0.7454",2.476 ± 0.015 mPa·s
same,viscosity,"313.15 K, 101 kPa, x1 = 0.8195",2.45 ± 0.015 mPa·s
same,viscosity,"313.15 K, 101 kPa, x1 = 0.8883",2.438 ± 0.015 mPa·s
same,viscosity,"313.15 K, 101 kPa, x1 = 0.9491",2.425 ± 0.015 mPa·s
same,viscosity,"318.15 K, 101 kPa, x1 = 0.0612",6.584 ± 0.039 mPa·s
same,viscosity,"318.15 K, 101 kPa, x1 = 0.1204",5.505 ± 0.034 mPa·s
same,viscosity,"318.15 K, 101 kPa, x1 = 0.1859",4.554 ± 0.028 mPa·s
same,viscosity,"318.15 K, 101 kPa, x1 = 0.3302",3.156 ± 0.02 mPa·s
same,viscosity,"318.15 K, 101 kPa, x1 = 0.4517",2.554 ± 0.016 mPa·s
same,viscosity,"318.15 K, 101 kPa, x1 = 0.5643",2.379 ± 0.015 mPa·s
same,viscosity,"318.15 K, 101 kPa, x1 = 0.6596",2.322 ± 0.014 mPa·s
same,viscosity,"318.15 K, 101 kPa, x1 = 0.7454",2.292 ± 0.014 mPa·s
same,viscosity,"318.15 K, 101 kPa, x1 = 0.8195",2.271 ± 0.014 mPa·s
same,viscosity,"318.15 K, 101 kPa, x1 = 0.8883",2.251 ± 0.014 mPa·s
same,viscosity,"318.15 K, 101 kPa, x1 = 0.9491",2.236 ± 0.014 mPa·s
